# Measured values: PubChem BioAssay AID2060903 (Molecular Pharmacology Branch, DTP, NCI, 2025)
# Test system: 377384-186-R-J1-PDC complex spheroid viability
# Assay: Anticancer human tumor 377384-186-R-J1-PDC patient-derived pancreatic carcinoma cell line growth inhibition [RAS]
# Settings: for IC50: curve of first compound; for viability, T/C: stronger effect = lower value
# Outline: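 Tumour cells grown as complex spheroids with HUVEC endothelial cells and mesenchymal stem cells, treated with RAS pathway inhibitor combinations. Each agent spans half-log steps from near clinical Cmax, or 10 microM where Cmax is unknown.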
# [1] = second compound 0.000949 µM, first compound 0.00316 µM
# [2] = second compound 0.000949 µM, first compound 0.01 µM
# [3] = second compound 0.000949 µM, first compound 0.0316 µM
# [4] = second compound 0.000949 µM, first compound 0.1 µM
# [5] = second compound 0.000949 µM, first compound 0.316 µM
# [6] = second compound 0.000949 µM, first compound 1 µM
# [7] = second compound 0.003 µM, first compound 0.00316 µM
# [8] = second compound 0.003 µM, first compound 0.01 µM
# [9] = second compound 0.003 µM, first compound 0.0316 µM
# [10] = second compound 0.003 µM, first compound 0.1 µM
# [11] = second compound 0.003 µM, first compound 0.316 µM
# [12] = second compound 0.003 µM, first compound 1 µM
# [13] = second compound 0.00949 µM, first compound 0.00316 µM
# [14] = second compound 0.00949 µM, first compound 0.01 µM
# [15] = second compound 0.00949 µM, first compound 0.0316 µM
# [16] = second compound 0.00949 µM, first compound 0.1 µM
# [17] = second compound 0.00949 µM, first compound 0.316 µM
# [18] = second compound 0.00949 µM, first compound 1 µM
# [19] = second compound 0.03 µM, first compound 0.00316 µM
# [20] = second compound 0.03 µM, first compound 0.01 µM
# [21] = second compound 0.03 µM, first compound 0.0316 µM
# [22] = second compound 0.03 µM, first compound 0.1 µM
# [23] = second compound 0.03 µM, first compound 0.316 µM
# [24] = second compound 0.03 µM, first compound 1 µM
# [25] = second compound 0.0949 µM, first compound 0.00316 µM
# [26] = second compound 0.0949 µM, first compound 0.01 µM
# [27] = second compound 0.0949 µM, first compound 0.0316 µM
# [28] = second compound 0.0949 µM, first compound 0.1 µM
# [29] = second compound 0.0949 µM, first compound 0.316 µM
# [30] = second compound 0.0949 µM, first compound 1 µM
# [31] = second compound 0.3 µM, first compound 0.00316 µM
# [32] = second compound 0.3 µM, first compound 0.01 µM
# [33] = second compound 0.3 µM, first compound 0.0316 µM
# [34] = second compound 0.3 µM, first compound 0.1 µM
# [35] = second compound 0.3 µM, first compound 0.316 µM
# [36] = second compound 0.3 µM, first compound 1 µM
# 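Also: spheroids exposed to compounds for seven days before readout.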
smiles,measurement,setting,value
C=CC(=O)N1CCN(c2nc(OCC3CCCN3C)nc3c(F)c(-c4nc(N)cc(C)c4C(F)(F)F)c(Cl)cc23)C(C)C1 (stereo unspecified) + CCn1c(-c2cc(N3CCN(C)CC3)cnc2C(C)OC)c2c3cc(ccc31)-c1csc(n1)CC(NC(=O)C1CC1C)C(=O)N1CCCC(N1)C(=O)OCC(C)(C)C2,IC50,second compound 0.000949 µM,> 1 µM
same,IC50,second compound 0.003 µM,< 0.00316 µM
same,IC50,second compound 0.00949 µM,< 0.00316 µM
same,IC50,second compound 0.03 µM,< 0.00316 µM
same,IC50,second compound 0.0949 µM,< 0.00316 µM
same,IC50,second compound 0.3 µM,< 0.00316 µM
same,"viability, T/C",[1],57.6%
same,"viability, T/C",[2],48.5%
same,"viability, T/C",[3],58%
same,"viability, T/C",[4],62.1%
same,"viability, T/C",[5],61.6%
same,"viability, T/C",[6],48%
same,"viability, T/C",[7],19.5%
same,"viability, T/C",[8],19.7%
same,"viability, T/C",[9],21.2%
same,"viability, T/C",[10],19.3%
same,"viability, T/C",[11],27.7%
same,"viability, T/C",[12],22.1%
same,"viability, T/C",[13],5.16%
same,"viability, T/C",[14],6.78%
same,"viability, T/C",[15],4.26%
same,"viability, T/C",[16],6.19%
same,"viability, T/C",[17],8.67%
same,"viability, T/C",[18],5.16%
same,"viability, T/C",[19],2.65%
same,"viability, T/C",[20],2.3%
same,"viability, T/C",[21],2.75%
same,"viability, T/C",[22],3.22%
same,"viability, T/C",[23],2.42%
same,"viability, T/C",[24],1.95%
same,"viability, T/C",[25],2.35%
same,"viability, T/C",[26],2.29%
same,"viability, T/C",[27],2.53%
same,"viability, T/C",[28],2.6%
same,"viability, T/C",[29],2.41%
same,"viability, T/C",[30],1.71%
same,"viability, T/C",[31],2.58%
same,"viability, T/C",[32],2.04%
same,"viability, T/C",[33],1.61%
same,"viability, T/C",[34],1.52%
same,"viability, T/C",[35],1.71%
same,"viability, T/C",[36],1.54%
CC1(C)CCC(Nc2ncc(C(F)(F)F)c(-c3c[nH]c4c(P(C)(C)=O)c(C#N)ccc34)n2)CN1 (stereo unspecified) + CCn1c(-c2cc(N3CCN(C)CC3)cnc2C(C)OC)c2c3cc(ccc31)-c1csc(n1)CC(NC(=O)C1CC1C)C(=O)N1CCCC(N1)C(=O)OCC(C)(C)C2,IC50,second compound 0.000949 µM,< 0.000949 µM
same,IC50,second compound 0.003 µM,< 0.000949 µM
same,IC50,second compound 0.00949 µM,< 0.000949 µM
same,IC50,second compound 0.03 µM,< 0.000949 µM
same,IC50,second compound 0.0949 µM,< 0.000949 µM
same,IC50,second compound 0.3 µM,< 0.000949 µM
same,"viability, T/C","second compound 0.000949 µM, first compound 0.000949 µM",42.6%
same,"viability, T/C","second compound 0.000949 µM, first compound 0.003 µM",37.1%
same,"viability, T/C","second compound 0.000949 µM, first compound 0.00949 µM",22.9%
same,"viability, T/C","second compound 0.000949 µM, first compound 0.03 µM",16.4%
same,"viability, T/C","second compound 0.000949 µM, first compound 0.0949 µM",14.9%
same,"viability, T/C","second compound 0.000949 µM, first compound 0.3 µM",14%
same,"viability, T/C","second compound 0.003 µM, first compound 0.000949 µM",21.9%
same,"viability, T/C","second compound 0.003 µM, first compound 0.003 µM",16.8%
same,"viability, T/C","second compound 0.003 µM, first compound 0.00949 µM",10.4%
same,"viability, T/C","second compound 0.003 µM, first compound 0.03 µM",9.92%
same,"viability, T/C","second compound 0.003 µM, first compound 0.0949 µM",11.7%
same,"viability, T/C","second compound 0.003 µM, first compound 0.3 µM",8.33%
same,"viability, T/C","second compound 0.00949 µM, first compound 0.000949 µM",6.47%
same,"viability, T/C","second compound 0.00949 µM, first compound 0.003 µM",5.75%
same,"viability, T/C","second compound 0.00949 µM, first compound 0.00949 µM",5.48%
same,"viability, T/C","second compound 0.00949 µM, first compound 0.03 µM",5.23%
same,"viability, T/C","second compound 0.00949 µM, first compound 0.0949 µM",5.63%
same,"viability, T/C","second compound 0.00949 µM, first compound 0.3 µM",5.21%
same,"viability, T/C","second compound 0.03 µM, first compound 0.000949 µM",2.48%
same,"viability, T/C","second compound 0.03 µM, first compound 0.003 µM",2.69%
same,"viability, T/C","second compound 0.03 µM, first compound 0.00949 µM",2.99%
same,"viability, T/C","second compound 0.03 µM, first compound 0.03 µM",3.34%
same,"viability, T/C","second compound 0.03 µM, first compound 0.0949 µM",2.03%
same,"viability, T/C","second compound 0.03 µM, first compound 0.3 µM",1.64%
same,"viability, T/C","second compound 0.0949 µM, first compound 0.000949 µM",2.02%
same,"viability, T/C","second compound 0.0949 µM, first compound 0.003 µM",2.11%
same,"viability, T/C","second compound 0.0949 µM, first compound 0.00949 µM",1.57%
same,"viability, T/C","second compound 0.0949 µM, first compound 0.03 µM",1.95%
same,"viability, T/C","second compound 0.0949 µM, first compound 0.0949 µM",1.46%
same,"viability, T/C","second compound 0.0949 µM, first compound 0.3 µM",1.6%
same,"viability, T/C","second compound 0.3 µM, first compound 0.000949 µM",1.8%
same,"viability, T/C","second compound 0.3 µM, first compound 0.003 µM",1.64%
same,"viability, T/C","second compound 0.3 µM, first compound 0.00949 µM",1.69%
same,"viability, T/C","second compound 0.3 µM, first compound 0.03 µM",2.15%
same,"viability, T/C","second compound 0.3 µM, first compound 0.0949 µM",1.77%
same,"viability, T/C","second compound 0.3 µM, first compound 0.3 µM",1.54%
C=CC(=O)Nc1cc(Nc2nccc(-c3cn(C)c4ccccc34)n2)c(OC)cc1N(C)CCN(C)C + CCn1c(-c2cccnc2C(C)OC)c2c3cc(ccc31)N1CCOC(CC(NC(=O)C(C(C)C)N(C)C(=O)C3(F)CCN(C(=O)C#CC(C)(C)N(C)C)CC3)C(=O)N3CCCC(N3)C(=O)OCC(C)(C)C2)C1,IC50,second compound 0.000949 µM,0.727 µM
same,IC50,second compound 0.003 µM,0.694 µM
same,IC50,second compound 0.00949 µM,0.682 µM
same,IC50,second compound 0.03 µM,0.699 µM
same,IC50,second compound 0.0949 µM,0.598 µM
same,IC50,second compound 0.3 µM,0.639 µM
same,"viability, T/C",[1],107%
same,"viability, T/C",[2],83.9%
same,"viability, T/C",[3],94.3%
same,"viability, T/C",[4],84.5%
same,"viability, T/C",[5],77.6%
same,"viability, T/C",[6],40%
same,"viability, T/C",[7],93.3%
same,"viability, T/C",[8],96.2%
same,"viability, T/C",[9],101%
same,"viability, T/C",[10],80%
same,"viability, T/C",[11],62.9%
same,"viability, T/C",[12],44.2%
same,"viability, T/C",[13],101%
same,"viability, T/C",[14],100%
same,"viability, T/C",[15],90.5%
same,"viability, T/C",[16],84.6%
same,"viability, T/C",[17],64.1%
same,"viability, T/C",[18],42.6%
same,"viability, T/C",[19],104%
same,"viability, T/C",[20],99.1%
same,"viability, T/C",[21],97.6%
same,"viability, T/C",[22],75.6%
same,"viability, T/C",[23],69.9%
same,"viability, T/C",[24],41.9%
same,"viability, T/C",[25],91.3%
same,"viability, T/C",[26],90.2%
same,"viability, T/C",[27],85%
same,"viability, T/C",[28],76.7%
same,"viability, T/C",[29],66%
same,"viability, T/C",[30],37.7%
same,"viability, T/C",[31],77.7%
same,"viability, T/C",[32],81%
same,"viability, T/C",[33],80.7%
same,"viability, T/C",[34],82.4%
same,"viability, T/C",[35],64.3%
same,"viability, T/C",[36],40.9%
